Assay results published in PMC5736175, “Nicotinic alpha 7 receptor agonists EVP-6124 and BMS-933043, attenuate scopolamine-induced deficits in visuo-spatial paired associates learning” (PLoS ONE, 2017).
Several values for one entry are separate records, joined by “and”; a condition that tells them apart may be missing. Equal values may be shown once.

System: scopolamine-treated cynomolgus monkeys
Test: Scopolamine-induced impairment of vsPAL task performance, treatment + scopolamine
Assay type: in vivo, cynomolgus monkeys (Macaca Fasicularis)
Settings: for % Completion / Average Response Latency (Avg Rsp Lat) / Eventual Correct, 3 Stimuli / Eventual Correct, 4 Stimuli / Eventual Correct, Overall Mean % Correct / Initial Correct, 3 Stimuli / Initial Correct, 4 Stimuli / Initial Correct, Overall Mean % Correct / Initial correct, 2 Stimuli / Eventual Correct, 2 Stimuli: im + Scopolamine
[1] = BMS-933043 0.1 mg/kg, individual animals, 0.1 mg/kg
[2] = BMS-933043 0.3 mg/kg, group MEAN
[3] = BMS-933043 0.3 mg/kg, individual animals, 0.3 mg/kg
[4] = BMS-933043 1.0 mg/kg, group MEAN
[5] = BMS-933043 1.0 mg/kg, individual animals, 1 mg/kg
[6] = all doses of the study, for EVP-6124 study (1)
[7] = compound 0.03 mg/kg i.m. + Scopolamine
[8] = compound 0.10 mg/kg i.m. + Scopolamine
[9] = compound 0.30 mg/kg i.m. + Scopolamine
[10] = compound 1.00 mg/kg i.m. + Scopolamine

c1cn(-c2cc(NC3=NC[C@@]4(CN5CCC4CC5)O3)ncn2)cn1 [BMS-933043, (2R)-N-(6-(1H-imidazol-1-yl)-4-pyrimidinyl)-4'H-spiro[4-azabicyclo[2.2.2]octane-2,5'-[1, 3]oxazol]-2'-amine]
% Completion [1]: 83.0% and 98.5% and 77.8% and 81.4% and 55.7% and 97.1% and 100.0% | Average Response Latency (Avg Rsp Lat) [1]: 1783.8 ms and 1549.9 ms and 1223.3 ms and 2854.5 ms and 1899.4 ms and 1717.2 ms and 2683.0 ms | Eventual Correct, 3 Stimuli [1]: 90.0% and 100.0% | Eventual Correct, 4 Stimuli [1]: 90.0% and 80.0% and 70.0% and 60.0% and 100.0% | Eventual Correct, Overall Mean % Correct [1]: 93.3% and 90.0% and 86.7% and 100.0% and 96.7% | Initial Correct, 3 Stimuli [1]: 80.0% and 60.0% and 70.0% and 90.0% and 100.0% | Initial Correct, 4 Stimuli [1]: 50.0% and 10.0% and 40.0% and 30.0% and 70.0% | Initial Correct, Overall Mean % Correct [1]: 76.7% and 53.3% and 66.7% and 90.0% and 60.0% | Initial correct, 2 Stimuli [1]: 100.0% and 90.0% and 80.0% | % Completion [2]: 86.7% | Average Response Latency (Avg Rsp Lat) [2]: 1774.3 ms | Eventual Correct, 2 Stimuli [2]: 100.0% | Eventual Correct, 3 Stimuli [2]: 94.3% | Eventual Correct, 4 Stimuli [2]: 90.0% | Eventual Correct, Overall Mean % Correct [2]: 94.3% | Initial Correct, 3 Stimuli [2]: 68.6% | Initial Correct, 4 Stimuli [2]: 45.0% | Initial Correct, Overall Mean % Correct [2]: 67.6% | Initial correct, 2 Stimuli [2]: 91.4% | Eventual Correct, 2 Stimuli (BMS-933043 0.3 mg/kg, individual animals): 100.0% | % Completion [3]: 86.3% and 100.0% and 97.7% and 32.1% and 95.8% and 95.1% | Average Response Latency (Avg Rsp Lat) [3]: 1690.5 ms and 1666.2 ms and 1269.7 ms and 2215.8 ms and 1344.9 ms and 1971.0 ms and 2262.1 ms | Eventual Correct, 3 Stimuli [3]: 100.0% and 60.0% | Eventual Correct, 4 Stimuli [3]: 80.0% and 100.0% and 90.0% | Eventual Correct, Overall Mean % Correct [3]: 93.3% and 100.0% and 80.0% and 96.7% | Initial Correct, 3 Stimuli [3]: 80.0% and 100.0% and 60.0% and 10.0% and 90.0% | Initial Correct, 4 Stimuli [3]: 60.0% and 40.0% and 50.0% and 30.0% | Initial Correct, Overall Mean % Correct [3]: 80.0% and 73.3% and 83.3% and 30.0% and 60.0% | Initial correct, 2 Stimuli [3]: 100.0% and 50.0% and 90.0% | % Completion [4]: 71.6% | Average Response Latency (Avg Rsp Lat) [4]: 2029.0 ms | Eventual Correct, 2 Stimuli [4]: 100.0% | Eventual Correct, 3 Stimuli [4]: 97.1% | Eventual Correct, 4 Stimuli [4]: 65.7% | Eventual Correct, Overall Mean % Correct [4]: 87.6% | Initial Correct, 3 Stimuli [4]: 71.4% | Initial Correct, 4 Stimuli [4]: 41.4% | Initial Correct, Overall Mean % Correct [4]: 69.5% | Initial correct, 2 Stimuli [4]: 95.7% | Eventual Correct, 2 Stimuli (BMS-933043 1.0 mg/kg, individual animals): 100.0% | % Completion [5]: 72.7% and 100.0% and 68.1% and 56.9% and 46.1% and 57.8% | Average Response Latency (Avg Rsp Lat) [5]: 2028.1 ms and 1536.5 ms and 1283.2 ms and 2484.6 ms and 1934.3 ms and 2639.0 ms and 2297.3 ms | Eventual Correct, 3 Stimuli [5]: 90.0% and 100.0% | Eventual Correct, 4 Stimuli [5]: 70.0% and 100.0% and 40.0% and 50.0% and 30.0% | Eventual Correct, Overall Mean % Correct [5]: 86.7% and 96.7% and 80.0% and 83.3% and 76.7% and 90.0% and 100.0% | Initial Correct, 3 Stimuli [5]: 50.0% and 80.0% and 90.0% and 70.0% | Initial Correct, 4 Stimuli [5]: 40.0% and 60.0% and 20.0% and 30.0% and 80.0% | Initial Correct, Overall Mean % Correct [5]: 63.3% and 76.7% and 60.0% and 86.7% | Initial correct, 2 Stimuli [5]: 100.0% and 90.0% | Holm-Sidak Post-Hoc, Treatment+Scopolamine differs from Vehicle+Scopolamine: percent correct on initial attempt, 3-stimuli (all doses of the study): n.s. | Holm-Sidak Post-Hoc, Treatment+Scopolamine differs from Vehicle+Scopolamine: Choice Response Latency [6]: n.s. | Holm-Sidak Post-Hoc, Treatment+Scopolamine differs from Vehicle+Scopolamine: Percent Task Completed [6]: n.s. | Holm-Sidak Post-Hoc, Treatment+Scopolamine differs from Vehicle+Scopolamine: percent correct on initial attempt, 2-stimuli [6]: n.s. | Holm-Sidak Post-Hoc, Treatment+Scopolamine differs from Vehicle+Scopolamine: percent correct on initial attempt, 4 stimuli [6]: n.s. | Percent Correct on Initial Attempt (SEM), 2 stimuli [7]: 90.0% (3.1%) | Percent Correct on Initial Attempt (SEM), 3 stimuli [7]: 58.6% (8.0%) | Percent Correct on Initial Attempt (SEM), 4 stimuli [7]: 38.3% (9.8%) | Percent Correct on Initial Attempt (SEM), 2 stimuli [8]: 88.6% (3.4%) | Percent Correct on Initial Attempt (SEM), 3 stimuli [8]: 75.7% (5.7%) | Percent Correct on Initial Attempt (SEM), 4 stimuli [8]: 35.7% (8.1%) | Percent Correct on Initial Attempt (SEM), 2 stimuli [9]: 91.4% (7.0%) | Percent Correct on Initial Attempt (SEM), 3 stimuli [9]: 68.6% (11.2%) | Percent Correct on Initial Attempt (SEM), 4 stimuli [9]: 45.0% (5.6%) | Percent Correct on Initial Attempt (SEM), 2 stimuli [10]: 95.7% (2.0%) | Percent Correct on Initial Attempt (SEM), 3 stimuli [10]: 71.4% (5.9%) | Percent Correct on Initial Attempt (SEM), 4 stimuli [10]: 41.4% (8.3%) | dose/exposure range across which efficacy was retained (eventual accuracy, scopolamine vsPAL): ≥ 10 fold | Cohen's D values at maximally efficacious doses (large treatment effect sizes): > 8
